This assay concerns VA-ES-BJ. The experiment in a line: relative viability vs DMSO control (72 h) (fraction); higher = more viable cells. The gist of the method: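 After seeding at densities set for 80–90% confluence in 384-well plates, sarcoma cell lines waited 24 h before 2.5 µl of serially diluted compound was added. Source plates held 10 mM down to 0.0002 mM. Plates were incubated 72 h at 37 °C with 5% CO2, with 0.1% DMSO vehicle and a 5 µM positive control, and relative viability was taken from ATPLite as percent growth averaged over up to triplicate wells, with 1 set as full and 0 as none.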

Where a name gives a salt, the structure may show the parent alone. ± gives the standard deviation of the averaged measurements.

`CC(=O)Nc1cccc(-n2c(=O)n(C3CC3)c(=O)c3c(Nc4ccc(I)cc4F)n(C)c(=O)c(C)c32)c1` [Trametinib]: the relative viability (0.00017 µM) stood at 1.08 ± 0.043; the relative viability (0.00051 µM) turned out to be 1.04 ± 0.026; the relative viability (0.00152 µM) is 1.02 ± 0.034; the relative viability (0.00457 µM) turned out to be 0.961 ± 0.038; the relative viability (0.01372 µM) worked out at 0.871 ± 0.028; the relative viability (0.04115 µM) is 0.811 ± 0.032. Moreover, the relative viability is 0.738 ± 0.029 (0.1235 µM); 0.656 ± 0.022 (0.3704 µM); 0.628 ± 0.018 (1.111 µM); 0.604 ± 0.019 (3.333 µM); 0.572 ± 0.016 (10 µM).
For `C=CC(=O)N1CCC[C@@H](n2nc(-c3ccc(Oc4ccccc4)cc3)c3c(N)ncnc32)C1` [Ibrutinib], the relative viability came out at 1.09 ± 0.046 (0.00017 µM); 1.08 ± 0.035 (0.00051 µM); 1.08 ± 0.089 (0.00152 µM); 1.06 ± 0.026 (0.00457 µM); 1.08 ± 0.05 (0.01372 µM); 1.09 ± 0.044 (0.04115 µM). Moreover, the relative viability reads like this: (0.1235 µM) 1.07 ± 0.068; (0.3704 µM) 1.07 ± 0.092; (1.111 µM) 1.13 ± 0.056; (3.333 µM) 1.1 ± 0.036; (10 µM) 0.989 ± 0.013.
In the case of `COc1cc2/c(=N/c3ccc(Br)cc3F)nc[nH]c2cc1OCC1CCN(C)CC1` [Vandetanib], the relative viability reads like this: (0.00017 µM) 1.04 ± 0.044; (0.00051 µM) 1.04 ± 0.027; (0.00152 µM) 1.03 ± 0.043; (0.00457 µM) 1.05 ± 0.073; (0.01372 µM) 1.06 ± 0.022; (0.04115 µM) 1.1 ± 0.04. In addition, the relative viability runs as follows: (0.1235 µM) 1.11 ± 0.029; (0.3704 µM) 1.11 ± 0.018; (1.111 µM) 1.08 ± 0.02; (3.333 µM) 0.93 ± 0.035; (10 µM) 0.239 ± 0.0077.
Regarding `C[C@@H]1COCCN1c1cc(-c2ccnn2C)c2ccnc(-c3ccn[nH]3)c2n1`, the relative viability runs as follows: (0.00017 µM) 1.02 ± 0.024; (0.00051 µM) 1.02 ± 0.03; (0.00152 µM) 1.01 ± 0.0075; (0.00457 µM) 1.05 ± 0.018; (0.01372 µM) 0.97 ± 0.07; (0.04115 µM) 0.739 ± 0.039. The compound also gave a relative viability (0.1235 µM) of 0.464 ± 0.038; a relative viability (0.3704 µM) of 0.212 ± 0.015; a relative viability (1.111 µM) of 0.191 ± 0.0065; a relative viability (3.333 µM) of 0.19 ± 0.015; a relative viability (10 µM) of 0.173 ± 0.019.
For the compound `COc1cccc2c1C(=O)c1c(O)c3c(c(O)c1C2=O)C[C@@](O)(C(=O)CO)C[C@@H]3O[C@H]1C[C@H](N)[C@H](O)[C@H](C)O1` [Doxorubicin Hydrochloride], the relative viability worked out at 1.03 ± 0.017 (0.00017 µM); 1.06 ± 0.08 (0.00051 µM); 1.03 ± 0.05 (0.00152 µM); 0.99 ± 0.033 (0.00457 µM); 0.857 ± 0.064 (0.01372 µM); 0.629 ± 0.028 (0.04115 µM). In addition, the relative viability runs as follows: (0.1235 µM) 0.386 ± 0.016; (0.3704 µM) 0.164 ± 0.012; (1.111 µM) 0.189 ± 0.0067; (3.333 µM) 0.143 ± 0.035; (10 µM) 0.126 ± 0.011.
Regarding `O=C(Nc1cnn2ccc(N3CCC[C@@H]3c3cc(F)ccc3F)nc12)N1CC[C@H](O)C1` [Larotrectinib], the relative viability (0.00017 µM) is 1.05 ± 0.058; the relative viability (0.00051 µM) is 1.07 ± 0.037; the relative viability (0.00152 µM) came out at 1.04 ± 0.04; the relative viability (0.00457 µM) was determined as 1.06 ± 0.044; the relative viability (0.01372 µM) was found to be 1.04 ± 0.017; the relative viability (0.04115 µM) is 1.02 ± 0.046. The relative viability came to 1 ± 0.04 (0.1235 µM); 0.99 ± 0.022 (0.3704 µM); 1.02 ± 0.036 (1.111 µM); 0.989 ± 0.043 (3.333 µM); 0.994 ± 0.043 (10 µM).
Regarding `Cc1cc(C)c(/C=C2\C(=O)Nc3ccccc32)[nH]1` [Semaxanib], the relative viability runs as follows: (0.00017 µM) 0.973 ± 0.027; (0.00051 µM) 0.969 ± 0.045; (0.00152 µM) 0.969 ± 0.039; (0.00457 µM) 0.97 ± 0.023; (0.01372 µM) 0.948 ± 0.016; (0.04115 µM) 0.914 ± 0.014. Further, the relative viability came to 0.922 ± 0.021 (0.1235 µM); 0.901 ± 0.048 (0.3704 µM); 0.889 ± 0.043 (1.111 µM); 0.902 ± 0.016 (3.333 µM); 0.855 ± 0.078 (10 µM).
Turning to `CC1(C)CNc2cc(NC(=O)c3cccnc3NCc3ccncc3)ccc21` [Motesanib], the relative viability reads like this: (0.00017 µM) 0.98 ± 0.021; (0.00051 µM) 0.982 ± 0.018; (0.00152 µM) 0.976 ± 0.041; (0.00457 µM) 1 ± 0.03; (0.01372 µM) 0.9877 ± 0.0081; (0.04115 µM) 1 ± 0.017. In addition, the relative viability by setting is: (0.1235 µM) 1.011 ± 0.0069; (0.3704 µM) 1.02 ± 0.022; (1.111 µM) 1.04 ± 0.042; (3.333 µM) 1.04 ± 0.024; (10 µM) 1.03 ± 0.029.
As for `Cc1nc(-c2cn3c(n2)-c2ccc(-c4cnn(C(C)(C)C(N)=O)c4)cc2OCC3)n(C(C)C)n1` [Taselisib], the relative viability came out at 1.01 ± 0.045 (0.00017 µM); 1.01 ± 0.03 (0.00051 µM); 1.02 ± 0.071 (0.00152 µM); 0.971 ± 0.048 (0.00457 µM); 0.943 ± 0.038 (0.01372 µM); 0.844 ± 0.039 (0.04115 µM). For the same compound, the relative viability amounted to 0.75 ± 0.06 (0.1235 µM); 0.616 ± 0.056 (0.3704 µM); 0.379 ± 0.013 (1.111 µM); 0.293 ± 0.028 (3.333 µM); 0.144 ± 0.15 (10 µM).
`CC(C)NC(=O)C1CCC(n2c(NC(=O)c3ccc(F)cc3)nc3ccc(CN4CCC(C(C)(C)O)CC4)cc32)CC1` (stereo not given) [Belizatinib] had a relative viability (0.00017 µM) of 1.05 ± 0.04; a relative viability (0.00051 µM) of 1.07 ± 0.059; a relative viability (0.00152 µM) of 1.05 ± 0.064; a relative viability (0.00457 µM) of 1.04 ± 0.018; a relative viability (0.01372 µM) of 1.08 ± 0.022; a relative viability (0.04115 µM) of 1.06 ± 0.046. The relative viability by setting is: (0.1235 µM) 1 ± 0.017; (0.3704 µM) 0.926 ± 0.014; (1.111 µM) 0.658 ± 0.012; (3.333 µM) 0.359 ± 0.012; (10 µM) 0.164 ± 0.0087.

For the origin of these results see the supplement of paper PMC10883282.
